{"source": "paper PMC12015462", "about": "“Prioritization of novel anti-infective stilbene derivatives by combining metabolomic data organization and a stringent 3R-infection model in a knowledge graph” (RSC Advances, 2025)", "type_in_all_cases": "cell-based", "key": {"[1]": {"system": "Mycobacterium marinum", "assay": "Infection assay: intracellular M. marinum growth (luminescence) in D. discoideum", "conditions": "for activity at 0.411523 µM / activity at 1.23457 µM / activity at 3.7037 µM / activity at 11.1111 µM / activity at 33.3333 µM / activity at 100 µM: 72 h; for activity at 0.411523 µM: conc 0.411522634 uM; for activity at 1.23457 µM: conc 1.234567901 uM; for activity at 3.7037 µM: conc 3.703703704 uM; for activity at 11.1111 µM: conc 11.11111111 uM; for activity at 33.3333 µM: conc 33.33333333 uM; for activity at 100 µM: conc 100 uM; for IC50: interpolated between the two concentrations closest to residual growth 0.5, top concentration 100 μM", "excerpt": "(§1) Since fractions were not weighed individually, the injection mass was used to calculate an average mass per fraction and thus a nominal mass concentration."}, "[2]": {"system": "Dictyostelium discoideum", "assay": "Infection assay: growth of the host amoeba D. discoideum (fluorescence) in infection", "conditions": "for activity at 0.411523 µM / activity at 1.23457 µM / activity at 3.7037 µM / activity at 11.1111 µM / activity at 33.3333 µM / activity at 100 µM: 72 h; for IC50: read-out: IC50 Dd in infection (μM)", "excerpt": "as §1"}, "[3]": {"system": "Mycobacterium marinum", "assay": "Anti-biotic assay: M. marinum growth in broth (luminescence)", "conditions": "for activity at 0.411523 µM / activity at 1.23457 µM / activity at 3.7037 µM / activity at 11.1111 µM / activity at 33.3333 µM / activity at 100 µM: 72 h; for IC50: read-out: IC50 Mm in broth (μM)", "description": "as §1\nPlating bacteria and compounds or fractions was performed analogously to the infection assay described above. Bacteria growth was monitored with the Agilent BioTek H1 plate reader by recording luminescence at 32 °C.\nThe prepared plates were sealed and stored at 4 °C overnight. On the day of the experiment, nine 10 cm Petri dishes were infected (as described before) and grouped into three pools."}, "[4]": {"conditions": "vehicle control set at 1, read-out: mean normalized residual growth, Mm in infection"}, "[5]": {"conditions": "vehicle control set at 1, read-out: median normalized residual growth, Mm in infection"}, "[6]": {"conditions": "read-out: mean normalized residual growth, Dd in infection"}, "[7]": {"conditions": "read-out: median normalized residual growth, Dd in infection"}, "[8]": {"conditions": "read-out: mean (normalised M. marinum growth, Mm in broth)"}, "[9]": {"conditions": "read-out: median (normalised M. marinum growth, Mm in broth)"}}, "note": "Read-outs that look alike come from different tables or passages of the source."}
{"smiles": "Oc1ccc(C=Cc2cc(O)cc3c2C(c2cc(O)cc(O)c2)C(c2ccc(O)c4c2OC(c2ccc(O)cc2O)C4c2cc(O)cc(O)c2)O3)cc1", "note": "(single isomer, unassigned; (-)) [Compound 11, (−)-Gnetuhainin M]", "values": [{"measurement": "activity at 0.411523 µM", "setting": "[1]; [4]", "result": 57.2, "unit": "%"}, {"measurement": "activity at 0.411523 µM", "setting": "[1]; [5]", "result": 56.8, "unit": "%"}, {"measurement": "activity at 1.23457 µM", "setting": "[1]; [4]", "result": 112, "unit": "%"}, {"measurement": "activity at 1.23457 µM", "setting": "[1]; [5]", "result": 106, "unit": "%"}, {"measurement": "activity at 3.7037 µM", "setting": "[1]; [4]", "result": 127, "unit": "%"}, {"measurement": "activity at 3.7037 µM", "setting": "[1]; [5]", "result": 128, "unit": "%"}, {"measurement": "activity at 11.1111 µM", "setting": "[1]; [4]", "result": 135, "unit": "%"}, {"measurement": "activity at 11.1111 µM", "setting": "[1]; [5]", "result": 123, "unit": "%"}, {"measurement": "activity at 33.3333 µM", "setting": "[1]; [4]", "result": 28.9, "unit": "%"}, {"measurement": "activity at 33.3333 µM", "setting": "[1]; [5]", "result": 31.3, "unit": "%"}, {"measurement": "activity at 100 µM", "setting": "[1]; [4]", "result": -4.28, "unit": "%"}, {"measurement": "activity at 100 µM", "setting": "[1]; [5]", "result": 14.1, "unit": "%"}, {"measurement": "IC50", "setting": "[1]", "result": 22.2, "unit": "µM"}, {"measurement": "activity at 0.411523 µM", "setting": "[2]; [6]", "result": 150, "unit": "%"}, {"measurement": "activity at 1.23457 µM", "setting": "[2]; [6]", "result": 115, "unit": "%"}, {"measurement": "activity at 3.7037 µM", "setting": "[2]; [6]", "result": 73.2, "unit": "%"}, {"measurement": "activity at 11.1111 µM", "setting": "[2]; [6]", "result": 64.6, "unit": "%"}, {"measurement": "activity at 33.3333 µM", "setting": "[2]; [6]", "result": 39.6, "unit": "%"}, {"measurement": "activity at 100 µM", "setting": "[2]; [6]", "result": 11.1, "unit": "%"}, {"measurement": "activity at 0.411523 µM", "setting": "[2]; [7]", "result": 87.9, "unit": "%"}, {"measurement": "activity at 1.23457 µM", "setting": "[2]; [7]", "result": 94.4, "unit": "%"}, {"measurement": "activity at 3.7037 µM", "setting": "[2]; [7]", "result": 85.9, "unit": "%"}, {"measurement": "activity at 11.1111 µM", "setting": "[2]; [7]", "result": 83, "unit": "%"}, {"measurement": "activity at 33.3333 µM", "setting": "[2]; [7]", "result": 90.3, "unit": "%"}, {"measurement": "activity at 100 µM", "setting": "[2]; [7]", "result": 72.8, "unit": "%"}, {"measurement": "IC50", "setting": "[2]", "result": "> 100", "unit": "µM"}, {"measurement": "activity at 0.411523 µM", "setting": "[3]; [8]", "result": 99, "unit": "%"}, {"measurement": "activity at 1.23457 µM", "setting": "[3]; [8]", "result": 108, "unit": "%"}, {"measurement": "activity at 3.7037 µM", "setting": "[3]; [8]", "result": 110, "unit": "%"}, {"measurement": "activity at 11.1111 µM", "setting": "[3]; [8]", "result": 88.7, "unit": "%"}, {"measurement": "activity at 33.3333 µM", "setting": "[3]; [8]", "result": 92.2, "unit": "%"}, {"measurement": "activity at 100 µM", "setting": "[3]; [8]", "result": 86.8, "unit": "%"}, {"measurement": "activity at 0.411523 µM", "setting": "[3]; [9]", "result": 104, "unit": "%"}, {"measurement": "activity at 1.23457 µM", "setting": "[3]; [9]", "result": 107, "unit": "%"}, {"measurement": "activity at 3.7037 µM", "setting": "[3]; [9]", "result": 115, "unit": "%"}, {"measurement": "activity at 11.1111 µM", "setting": "[3]; [9]", "result": 91.1, "unit": "%"}, {"measurement": "activity at 33.3333 µM", "setting": "[3]; [9]", "result": 96.7, "unit": "%"}, {"measurement": "activity at 100 µM", "setting": "[3]; [9]", "result": 83.5, "unit": "%"}, {"measurement": "IC50", "setting": "[3]", "result": "> 100", "unit": "µM"}]}
{"smiles": "Oc1ccc(/C=C/c2cc(O)c3c(c2)O[C@@H](c2ccc(O)cc2)[C@@H]3c2cc(O)c3c(c2)O[C@H](c2ccc(O)cc2)[C@H]3c2cc(O)cc(O)c2)cc1", "note": "[Compound 6, (−)-Gnetin E]", "values": [{"measurement": "activity at 0.411523 µM", "setting": "[1]; [4]", "result": 165, "unit": "%"}, {"measurement": "activity at 0.411523 µM", "setting": "[1]; [5]", "result": 154, "unit": "%"}, {"measurement": "activity at 1.23457 µM", "setting": "[1]; [4]", "result": 202, "unit": "%"}, {"measurement": "activity at 1.23457 µM", "setting": "[1]; [5]", "result": 184, "unit": "%"}, {"measurement": "activity at 3.7037 µM", "setting": "[1]; [4]", "result": 196, "unit": "%"}, {"measurement": "activity at 3.7037 µM", "setting": "[1]; [5]", "result": 172, "unit": "%"}, {"measurement": "activity at 11.1111 µM", "setting": "[1]; [4]", "result": 169, "unit": "%"}, {"measurement": "activity at 11.1111 µM", "setting": "[1]; [5]", "result": 155, "unit": "%"}, {"measurement": "activity at 33.3333 µM", "setting": "[1]; [4]", "result": 98.2, "unit": "%"}, {"measurement": "activity at 33.3333 µM", "setting": "[1]; [5]", "result": 95.4, "unit": "%"}, {"measurement": "activity at 100 µM", "setting": "[1]; [4]", "result": 46.3, "unit": "%"}, {"measurement": "activity at 100 µM", "setting": "[1]; [5]", "result": 49.1, "unit": "%"}, {"measurement": "IC50", "setting": "[1]", "result": 66.7, "unit": "µM"}, {"measurement": "activity at 0.411523 µM", "setting": "[2]; [6]", "result": 119, "unit": "%"}, {"measurement": "activity at 1.23457 µM", "setting": "[2]; [6]", "result": 116, "unit": "%"}, {"measurement": "activity at 3.7037 µM", "setting": "[2]; [6]", "result": 112, "unit": "%"}, {"measurement": "activity at 11.1111 µM", "setting": "[2]; [6]", "result": 114, "unit": "%"}, {"measurement": "activity at 33.3333 µM", "setting": "[2]; [6]", "result": 95.3, "unit": "%"}, {"measurement": "activity at 100 µM", "setting": "[2]; [6]", "result": 35.6, "unit": "%"}, {"measurement": "activity at 0.411523 µM", "setting": "[2]; [7]", "result": 93.6, "unit": "%"}, {"measurement": "activity at 1.23457 µM", "setting": "[2]; [7]", "result": 89.2, "unit": "%"}, {"measurement": "activity at 3.7037 µM", "setting": "[2]; [7]", "result": 92, "unit": "%"}, {"measurement": "activity at 11.1111 µM", "setting": "[2]; [7]", "result": 88.5, "unit": "%"}, {"measurement": "activity at 33.3333 µM", "setting": "[2]; [7]", "result": 86.1, "unit": "%"}, {"measurement": "activity at 100 µM", "setting": "[2]; [7]", "result": 56.8, "unit": "%"}, {"measurement": "IC50", "setting": "[2]", "result": "> 100", "unit": "µM"}, {"measurement": "activity at 0.411523 µM", "setting": "[3]; [8]", "result": 134, "unit": "%"}, {"measurement": "activity at 1.23457 µM", "setting": "[3]; [8]", "result": 114, "unit": "%"}, {"measurement": "activity at 3.7037 µM", "setting": "[3]; [8]", "result": 113, "unit": "%"}, {"measurement": "activity at 11.1111 µM", "setting": "[3]; [8]", "result": 114, "unit": "%"}, {"measurement": "activity at 33.3333 µM", "setting": "[3]; [8]", "result": 118, "unit": "%"}, {"measurement": "activity at 100 µM", "setting": "[3]; [8]", "result": 110, "unit": "%"}, {"measurement": "activity at 0.411523 µM", "setting": "[3]; [9]", "result": 135, "unit": "%"}, {"measurement": "activity at 1.23457 µM", "setting": "[3]; [9]", "result": 109, "unit": "%"}, {"measurement": "activity at 3.7037 µM", "setting": "[3]; [9]", "result": 114, "unit": "%"}, {"measurement": "activity at 11.1111 µM", "setting": "[3]; [9]", "result": 114, "unit": "%"}, {"measurement": "activity at 33.3333 µM", "setting": "[3]; [9]", "result": 119, "unit": "%"}, {"measurement": "activity at 100 µM", "setting": "[3]; [9]", "result": 110, "unit": "%"}, {"measurement": "IC50", "setting": "[3]", "result": "> 100", "unit": "µM"}]}
